Results: patent US11484601B2, “Targeting M2-like tumor-associated macrophages by using melittin-based proapoptotic peptide” (TWI[…]., priority 2018, dated 2022)

Key:
M1 macrophage = assay: Annexin V-FITC / MitoTracker flow cytometry, M1 macrophage; assay type: cell-based, mouse; conditions: 0.8 μM peptide
Method: (§1) More specifically, the cells were stained with Annexin V-fluorescein isothiocyanate (FITC; BD Biosciences, CA, USA) and MitoTracker RedBOX (Invitrogen). The cells were inoculated at 5×10^5 cells/well, onto a 24-well plate. The next day, 0.8 μM peptide was applied thereto. In 1, 3 and 6 hours after the application, the cells were reacted with 250 nM MitoTracker for 1 hour in a serum-free culture solution. Thereafter, the cells were collected and reacted with Annexin V again. The reacted cells were measured with BD FACSCalibur, and were analyzed via FlowJo software (Treestar, Inc., CA, USA). MitoTracker could pass through protoplasmic membrane depending on the membrane charge and then accumulated within the mitochondria. In other words, staining may be identified in the mitochondria membrane of living cells, but staining may be difficult in cells where apoptosis occurs due to membrane disturbance.

M2 macrophage = assay: Annexin V-FITC / MitoTracker flow cytometry, M2 macrophage; assay type: cell-based, mouse; conditions: 0.8 μM peptide, 6 hours
Method: as §1

[1] = tested on: 4T1-luciferase breast cancer cells; assay: 4T1-luciferase breast cancer in mammary gland of NOD-SCID mice; assay type: in vivo, mouse; conditions: 175 nmol/kg once every 3 days; for luminescence level at the metastasis site / metastasis area (lymph nodes of the armpit and lungs): 4 weeks; for growth of breast cancer cells in mammary gland: NOD-SCID mice
Method: More specifically, to identify the effect of MEL-dKLA on tumor growth and metastasis when breast cancer cells were […] into the breast, 4T1-luciferase breast cancer cells (1×10^5) were injected into NOD-SCID mice as immunodeficient mice. From the time point when the tumor mass began to grow in the mammary gland No. 4 on 5 days after the injection, 175 nmol/kg of each of PBS, dKLA, MEL and MEL-dKLA was injected into each group once every 3 days. To measure the growth of the tumor, the size of the tumor was measured once every 3 days using a caliper device, and all tumor tissues were collected 4 weeks after the injection. On 4 weeks after the tumor transplantation, in order to identify metastasis of the tumor to the lymph nodes and lungs, D-luciferin as a substrate of luciferase enzyme was diluted to a concentration of 40 mg/ml and then, 100 μl thereof was administered to mice in an intraperitoneal administration mode. After reacting for about 15 minutes, luminescence was measured using NightOwl (Berthold Technologies) as an in vivo imaging device. Then, we analyzed the luminescence with pictures of mice to identify the level of metastasis to the whole body and lungs. The animal experiment was approved by the Animal Management Committee of Kyunghee University [KHUASP(SE)-18-133], and the animals were managed via autonomous feeding of water and food under a 12-hour light/dark cycle environment without pathogens.

[2] = tested on: 4T1-luciferase breast cancer cells; assay: 4T1-luciferase tail vein metastaticity model in BALB/c mice; assay type: in vivo, mouse; conditions: 175 nmol/kg once every 3 days, 15 days after tail vein injection
Method: Additionally, 4T1-luciferase breast cancer cells (1×10^5) were injected into BALB/c mice through a tail vein in order to identify metastaticity of tumor cells. 3 days after the injection, 175 nmol/kg of each of PBS, dKLA, MEL and MEL-dKLA was injected into each group once every 3 days. 15 days after the cancer cell injection, D-luciferin as a substrate of luciferase enzyme was diluted to a concentration of 40 mg/ml, and then 100 μl thereof was administered to mice in an intraperitoneal administration mode, Then, reaction occurred for about 15 minutes. NightOwl (Berthold Technologies) was used in combination with photographs of mice to analyze the level of settlement and metastasis of cancer cells to the whole body and lungs.

CCL22 = assay: Quantitative real-time PCR of lung tissue, CCL22; assay type: in vivo, mouse; conditions: vs PBS-treated group
Method: (§2) To measure the ability of MEL-dKLA to inhibit tumor metastasis, expression levels of CD44 known to interact with extracellular matrix ligand to promote metastasis and invasion and thus to be widely expressed in cancer, CCL22 known as M2-type macrophage marker, HIF-1α known as a marker of angiogenesis, metastasis and invasion, Ym1 as a marker of M2-type macrophage, and MMP-9 involved in the migration and settlement of tumor cells were measured via quantitative real-time PCR.
(§3) More specifically, RNA was extracted from lung tissue using an easy-BLUE RNA extraction kit (iNtRON Biotechnology, Korea). Then, cDNA was synthesized according to the manual for cyclescript reverse transcriptase (Bioneer, Korea). cDNA synthesis conditions were as follows: 15 seconds at 95, 10 seconds at 55, and 10 seconds at 72. Each reaction was conducted 3 times. […] Quantitative real-time PCR was performed using the SensiFAST SYBR no-Rox kit (Bioline, Korea).

HIF-1α = assay: Quantitative real-time PCR of lung tissue, HIF-1α; assay type: in vivo, mouse; conditions: vs PBS-treated group
Method: as §2, §3

Ym1 = assay: Quantitative real-time PCR of lung tissue, Ym1; assay type: in vivo, mouse; conditions: vs PBS-treated group
Method: as §2, §3

MMP-9 = assay: Quantitative real-time PCR of lung tissue, MMP-9; assay type: in vivo, mouse
Method: as §2, §3

| Compound | Annexin V / MitoTracker staining effect on M1 macrophage (M1 macrophage; 1 to 3 hours) | Annexin V / MitoTracker staining change in M1 macrophage (M1 macrophage; 6 hours) | cell death of M2 macrophage (Annexin V / MitoTracker) (M2 macrophage) | luminescence level at the metastasis site [1] | metastasis area (lymph nodes of the armpit and lungs) [1] | growth of breast cancer cells in mammary gland [1] | metastaticity, luminescence of cancer cells throughout the whole body [2] | expression of CCL22 (CCL22) | expression of HIF-1α (HIF-1α) | expression of Ym1 (Ym1) | expression of MMP-9 (MMP-9) |
| --- | --- | --- | --- | --- | --- | --- | --- | --- | --- | --- | --- |
| CC[C@H](C)[C@H](NC(=O)CN)C(=O)NCC(=O)N[C@@H](C)C(=O)N[C@H](C(=O)N[C@@H](CC(C)C)C(=O)N[C@@H](CCCCN)C(=O)N[C@H](C(=O)N[C@@H](CC(C)C)C(=O)N[C@H](C(=O)N[C@H](C(=O)NCC(=O)N[C@@H](CC(C)C)C(=O)N1CCC[C@H]1C(=O)N[C@@H](C)C(=O)N[C@@H](CC(C)C)C(=O)N[C@H](C(=O)N[C@@H](CO)C(=O)N[C@@H](Cc1c[nH]c2ccccc12)C(=O)N[C@H](C(=O)N[C@@H](CCCCN)C(=O)N[C@@H](CCCNC(=N)N)C(=O)N[C@@H](CCCCN)C(=O)N[C@@H](CCCNC(=N)N)C(=O)N[C@@H](CCC(N)=O)C(=O)N[C@@H](CCC(N)=O)C(N)=O)[C@@H](C)CC)[C@@H](C)CC)[C@@H](C)O)[C@@H](C)O)C(C)C)C(C)C [MEL] | the effect did not appear | no significant change | no significant difference was found | exhibited a tendency to decrease but did not exhibit significance | no significant difference from the PBS-treated group | did not occur significantly | metastasis was reduced | not significantly different | not significantly different | no significant difference | lower compared to that in the PBS-treated group |
| d[KLAKLAKKLAKLAK] (D-amino acids) [dKLA, pro-apoptotic peptide KLA, used as control] |  |  | no significant difference was found | exhibited a tendency to decrease but did not exhibit significance | no significant difference from the PBS-treated group | did not occur significantly | measured at a high level throughout the body | not significantly different | not significantly different | increased significantly | high |
